Literature values in patent publication US20040122104A1 (Collegium Pharmaceutical, Inc., priority 2002, published 2004).
Read-outs that look alike come from different tables or passages of the source.

How the values were obtained:
[1] = in vivo
[2] = 75-100 mg/day twice daily for 8 weeks, 219 elderly patients
[3] = intravenous, of 10 patients
[4] = not given; remark: listed apart in the source
[5] = compared with SSRIs and tricyclic antidepressants
[6] = approximately 400,000 patients

Row | Structure (SMILES) | top three adverse events associated with discontinuation of treatment [1] | only adverse event reported more frequently than for imipramine recipients [2] | patients reporting transient nausea [3] | metabolites as share of the concentration of the parent drug (liver metabolism) | number of chemically identified metabolites (liver metabolism) | time in which oral doses are absorbed and extensively distributed in the body (oral) | global pain score, mean value ([4]; 1-7 scale (1 very much improved, 4 unchanged, 7 very much worse), patients who reached endpoint) | participants who failed the dose escalation ([4]; BID-IR group (twice daily immediate release)) | participants who failed the dose escalation ([4]; QD-IR group (once daily immediate release)) | disturbances of REM sleep [5] | toxicity in humans [6]
1 | CN[C@H]1CC[C@@H](c2ccc(Cl)c(Cl)c2)c2ccccc21 [sertraline] | nausea, insomnia, and diarrhea |  |  |  |  |  |  |  |  |  | 
2 | CCN(CC)C(=O)C1(c2ccccc2)CC1CN (centres unmarked) [milnacipran, Milnacipran] |  | nausea | five | about 10% | ten | 1 to 2 h | 2.3 | 6% | 19% | only minor disturbances | non-toxic
